# Measurements published in patent EP0252983B1, “SALTS OF N-(VINYLOXIETHYL)DITHIOCARBAMIC ACID, METHOD OF OBTAINING THEREOF AND […] ON THEM” (priority 1985, dated 1987).
# Key:
# [1] = system: Acremonium charticola; test: Mycelial growth inhibition on agar (contact activity); format: cell-based; details: Würzeagar
# Protocol: (§1) Die Prüfungen werden nach dem Verfahren zur Ermittlung der Kontaktaktivität durchgeführt. Man verwendet das in Wasser gelöste Kalium-N-(vinyloxyäthyl)dithiocarbamat, führt es in ein Nährmedium ein und vergießt auf Petri-Schalen. Nach 24 Stunden wird mit Pilzmyzelium nach einem Stichverfahren geimpft. Dann temperiert man die Schalen innerhalb von 5 Tagen bei einer zwischen 24 und 26 °C liegenden Temperatur und mißt den Durchmesser von Pilzkolonien, ermittelt den Prozentsatz der Hemmung des Myzelwachstums (S) ausgehend von Angaben am 5. Tag nach der Abbott-Formel [drawing 13] worin dc für den Durchmesser der Pilzkolonien, de für den Durchmesser von Pilzkolonien in der Schale stehen, wo ein die zu prüfenden Stoffe enthaltendes Medium vorhanden ist. Dieses Verfahren zur Ermittlung der mikrobiologischen Aktivität ist in anderen Beispielen verwendet.
# (§2) Die Pilzkulturen werden auf Würzeagar gezüchtet. Ergebnisse, erhalten bei der Prüfung der fungiziden Aktivität gegen reine Kulturen von Mikroorganismen, welche Bioschädigungen hervorrufen, sind in der Tabelle 1 dargestellt.
# [2] = system: Acremonium cowum; test: as above; format: cell-based; details: Würzeagar
# Protocol: as §1, §2
# [3] = system: Cladosporium cladosporioides; test: as above; format: cell-based; details: Würzeagar
# Protocol: as §1, §2
# [4] = system: Cladosporium resinae; test: as above; format: cell-based; details: Würzeagar
# Protocol: as §1, §2
# [5] = system: Geotrichum candidum Link; test: as above; format: cell-based; details: Würzeagar
# Protocol: as §1, §2
# [6] = system: Oidium Sp.; test: as above; format: cell-based; details: Würzeagar
# Protocol: as §1, §2
# [7] = system: Penicillium charlesii; test: as above; format: cell-based; details: Würzeagar
# Protocol: as §1, §2
# [8] = system: Penicillium chrysogenum; test: as above; format: cell-based; details: Würzeagar
# Protocol: as §1, §2
# [9] = system: Walrotiela subiculesa; test: as above; format: cell-based; details: Würzeagar
# Protocol: as §1, §2
# [10] = system: Fusarium moniliforme; test: as above; format: cell-based; details: Wirkstoffkonzentration 0,003 %; Würzeagar; Tabelle 7
# Protocol: as §1
# (§3) Tabelle 2 zeigt die Angaben für die fungizide Aktivität von Kalium-N-(vinyloxyäthyl)dithiocarbamat und bekannten wirksamen Fungiziden Poly arbazin und TMTD. Der zu prüfende Stoff wurde im Laufe der Versuche in Wasser aufgelöst, und die Kulturen wurden auf einem Kartoffel-Glukose-Nährmedium gezüchtet.
# [11] = system: Fusarium sambucinum; test: as above; format: cell-based; details: Wirkstoffkonzentration 0,003 %; Würzeagar; Tabelle 7
# Protocol: as §1, §3
# [12] = system: Aspergillus niger; test: as above; format: cell-based; details: Wirkstoffkonzentration 0,003 %, Würzeagar
# [13] = system: Paecilomyces varioti; test: as above; format: cell-based; details: Wirkstoffkonzentration 0,003 %; Würzeagar; Tabelle 8
# Protocol: as §1
# [14] = system: Penicillium funiculosum; test: as above; format: cell-based; details: Wirkstoffkonzentration 0,003 %; Würzeagar; Tabelle 8
# Protocol: as §1
# [15] = system: Stereum hirsutum; test: as above; format: cell-based; details: Wirkstoffkonzentration 0,003 %; Würzeagar; Tabelle 8
# Protocol: as §1
# [16] = system: Rhizoctonia solani; test: as above; format: cell-based; details: Wirkstoffkonzentration 0,003 %; Würzeagar; Tabelle 7
# Protocol: as §1
# Die fungizide Aktivität von Zink-bis-(N-vinyloxyäthyldithiocarbamat) gegen reine Kulturen von Pilzen Fusarium moniliforme, Fusarium sambucinum, Aspergillus niger, Rhizoctonia solani, Cladosporium resinae, Cladosporium cladosporioides, Acremonium cowum, Acremonium charticola, Penicillium chrysogenum, Penicillium charlesii Smith, Penicillium funiculosum, Geotrichum candidum Link, Walrotiela subiculesa, Oidium sp., Paecilomyces varioti, Stereum hirsutum wird gemäß Beispiel 8 untersucht.
# (§4) Als Nährmedium dient Würzeagar.
# [17] = system: Sphaeropsis malorum; test: as above; format: cell-based; details: Wirkstoffkonzentration 0,003 %; Würzeagar; Tabelle 7
# Protocol: as §1, §4
# [18] = system: Wurzelfäule von Gurken; test: Cucumber root rot test in treated non-sterile soil; format: in vivo
# Description: Man nimmt 100 g unsterilen Boden, enthaltend 1 Teil Humus, 1 Teil Rasenboden, 1 Teil Sand, gibt darin ein Präparat, das Zink-bis-(N-vinyloxyäthyldithiocarbamat) ausgehend von 200 kg/ha Wirkstoff enthält.
# Das Präparat wird wie folgt hergestellt: Einer gesättigten Lösung des genannten Salzes in Azeton gibt man einige Tropfen Emulgiermittel (hydroxyäthylierte Alkylphenole) zu und verdünnt mit Wasser. Innerhalb von 7 bis 8 Tagen begießt man dann bodenhaltige Gefäße mit Wasser, bis der Boden in einen Zustand gebracht wird, der 60% der vollen Wasseraufnahmekapazität des Feldes beträgt. Nach dieser Zeit erfolgt die Aussaat von Gurkensamen, eingequollen im voraus in einer 0,1%igen KMn04-Lösung innerhalb von 2 Stunden. In jedes Gefäß werden je 10 Samen auf eine Tiefe von 1 bis 1,5 cm gesät. Nach 7 bis 9 Tagen berücksichtigt man die Keimungsfähigkeit von Samen, dann bestimmt man nach 3 Tagen den Befallumfang von Pflanzen durch Wurzelfäule, hervorgerufen durch einen Erregerkomplex. Die Versuche werden viermal wiederholt, als Vergleichsmuster dient Milon. Die Prüfergebnisse zeigt Tabelle 9.
# [19] = system: Bacillus; test: Bactericidal activity on agar (concentration of complete growth inhibition); format: cell-based; details: % bezogen auf den Wirkstoff; am 5. Tag
# Protocol: (§5) Geprüft wird die bakterizide Aktivität von Kalium-, Natrium-, Zink- und Kupfersalzen der N-(Vinyloxyäthyl)dithiocarbamidsäure gegen Bakterien der Gattungen Bacillus, Micrococcus, Pseudomonas, Escherichia und Xantomonas.
# (§6) Man stellt wäßrige Stofflösungen verschiedener Konzentration her, die so berechnet werden, daß die Stoffkonzentration in der Petri-Schale bei der Gabe von 1 ml Lösung in das geschmolzene Nährmedium (45 bis 50 °C) zwischen 0,003 und 25 % (bezogen auf den Wirkstoff) schwankt. Nach 18 bis 24 Stunden bringt man auf die Oberfläche des Nährmediums 0,1 ml wäßrige Suspension eintägiger reiner Kulturen von Bakterien auf und verteilt sie gleichmäßig. In Kontrollschalen verteilt sich 0,1 ml Wasser über die Oberfläche des Nährmediums. Die Inkubation erfolgt bei 37 °C innerhalb von 5 Tagen. Die Wirksamkeit der Stoffe wird nach dem Auftreten des Bakterienwachstums auf der Oberfläche des Nährmediums eingeschätzt. Die Prüfergebnisse sind in der Tabelle 13 dargestellt.
# [20] = system: Escherichia; test: as above; format: cell-based; details: % bezogen auf den Wirkstoff; am 5. Tag
# Protocol: as §5, §6
# [21] = system: Micrococcus; test: as above; format: cell-based; details: % bezogen auf den Wirkstoff; am 5. Tag
# Protocol: as §5, §6
# [22] = system: Pseudomonas; test: as above; format: cell-based; details: % bezogen auf den Wirkstoff; am 5. Tag
# Protocol: as §5, §6
# [23] = system: Larven von Fichtenböcken; test: Insecticidal activity, topical application to larvae; format: in vivo, Fichtenböcke; details: 10%ige Lösung
# Description: Die hohe insektizide Aktivität von Kalium-N-(vinyloxyathyl)dithiocarbamat und Zink-bis-(N-vinyloxyathyl- dithiocarbamat) wurde in Versuchen an Larven von Fichtenböcken nachgewiesen. Geprüft wurden die 10%igen wäßrigen (oder alkoholischen) Lösungen, welche auf die Kopfbrust von Larven aufgebracht wurden. In Versuchen standen je 20 Larven zur Verfügung. Die Versuche wurden dreimal wiederholt. Die Mortalität wurde nach 1, 24 und 48 Stunden ermittelt. Die insektizide Aktivität der erfindungsgemäßen Stoffe ist bedeutend höher als die von Chlorophos.
# Die Prüfungen auf insektizide Aktivität werden an Larven von Fichtenböcken durchgeführt. Geprüft werden eine 10%ige wäßrige Lösung von Kalium-N-(vinyloxyäthyl)dithiocarbamat und eine 10%ige alkoholische Lösung von Zink-bis-N-(vinyloxyathyldithiocarbamat). In jedem Versuch stehen je 20 Larven zur Verfügung. Die Mortalität wird nach 1, 24 und 48 Stunden ermittelt. Die zu prüfenden Lösungen werden auf die Kopfbrust von Larven aufgebracht.
# [24] = Acute toxicity (LD50) in mice; format: in vivo, weißen Mäusen; details: perorale Applikation an weißen Mäusen
# [25] = Solubility in water (descriptive); format: physicochemical
substance,measurement,setting,value
Zink-bis-(N-vinyloxyäthyldithiocarbamat),Myzelhemmung in %,"[1]; Präparatkonzentration 0,0015 %",50%
same,Myzelhemmung in %,"[1]; Präparatkonzentration 0,003 %",100%
same,Myzelhemmung in %,"[1]; Präparatkonzentration 0,006 %",100%
same,Myzelhemmung in %,"[1]; Präparatkonzentration 0,012 %",100%
same,Myzelhemmung in %,"[2]; Präparatkonzentration 0,0015 %",40%
same,Myzelhemmung in %,"[2]; Präparatkonzentration 0,003 %",100%
same,Myzelhemmung in %,"[2]; Präparatkonzentration 0,006 %",100%
same,Myzelhemmung in %,"[2]; Präparatkonzentration 0,012 %",100%
same,Myzelhemmung in %,"[3]; Präparatkonzentration 0,0015 %",100%
same,Myzelhemmung in %,"[3]; Präparatkonzentration 0,003 %",100%
same,Myzelhemmung in %,"[3]; Präparatkonzentration 0,006 %",100%
same,Myzelhemmung in %,"[3]; Präparatkonzentration 0,012 %",100%
same,Myzelhemmung in %,"[4]; Präparatkonzentration 0,0015 %","37,5%"
same,Myzelhemmung in %,"[4]; Präparatkonzentration 0,003 %",100%
same,Myzelhemmung in %,"[4]; Präparatkonzentration 0,006 %",100%
same,Myzelhemmung in %,"[4]; Präparatkonzentration 0,012 %",100%
same,Myzelhemmung in %,"[5]; Präparatkonzentration 0,0015 %",29%
same,Myzelhemmung in %,"[5]; Präparatkonzentration 0,003 %",100%
same,Myzelhemmung in %,"[5]; Präparatkonzentration 0,006 %",100%
same,Myzelhemmung in %,"[5]; Präparatkonzentration 0,012 %",100%
same,Myzelhemmung in %,"[6]; Präparatkonzentration 0,0015 %",80%
same,Myzelhemmung in %,"[6]; Präparatkonzentration 0,003 %",100%
same,Myzelhemmung in %,"[6]; Präparatkonzentration 0,006 %",100%
same,Myzelhemmung in %,"[6]; Präparatkonzentration 0,012 %",100%
same,Myzelhemmung in %,"[7]; Präparatkonzentration 0,0015 %",90%
same,Myzelhemmung in %,"[7]; Präparatkonzentration 0,003 %",100%
same,Myzelhemmung in %,"[7]; Präparatkonzentration 0,006 %",100%
same,Myzelhemmung in %,"[7]; Präparatkonzentration 0,012 %",100%
same,Myzelhemmung in %,"[8]; Präparatkonzentration 0,0015 %",10%
same,Myzelhemmung in %,"[8]; Präparatkonzentration 0,003 %",40%
same,Myzelhemmung in %,"[8]; Präparatkonzentration 0,006 %",80%
same,Myzelhemmung in %,"[8]; Präparatkonzentration 0,012 %",100%
same,Myzelhemmung in %,"[9]; Präparatkonzentration 0,0015 %",52%
same,Myzelhemmung in %,"[9]; Präparatkonzentration 0,003 %",100%
same,Myzelhemmung in %,"[9]; Präparatkonzentration 0,006 %",100%
same,Myzelhemmung in %,"[9]; Präparatkonzentration 0,012 %",100%
same,Myzelhemmung in %,[10],100%
same,Myzelhemmung in %,[11],100%
same,Myzelhemmung in %,[12]; Tabelle 7,90%
same,Myzelhemmung in %,[12]; Tabelle 8,90%
same,Myzelhemmung in %,[13],100%
same,Myzelhemmung in %,[14],100%
same,Myzelhemmung in %,[15],100%
same,Myzelhemmung in %,[16],100%
same,Myzelhemmung in %,[17],100%
same,Entwicklung von Wurzelschimmel vermindert sich gegenüber Kontrolle,[18]; Aufzucht von Gurken,Ilfache
same,Samenkeimung steigt gegenüber Kontrolle,[18]; Aufzucht von Gurken,11%
same,Samenkeimung steigt gegenüber Milon (Vergleichmuster),[18]; Aufzucht von Gurken,15%
same,Keimungshäufigkeit in %,"[18]; Gurkensamen, 200 kg/ha Wirkstoff","85,1%"
same,Entwicklung von Krankheiten in %,"[18]; Wurzelfäule von Gurken, 200 kg/ha Wirkstoff","4,0%"
same,"Konzentrationen, welche das Bakterienwachstum völlig (100 %) hemmen",[19],"0,05%"
same,"Konzentrationen, welche das Bakterienwachstum völlig (100 %) hemmen",[20],"0,05%"
same,"Konzentrationen, welche das Bakterienwachstum völlig (100 %) hemmen",[21],"0,05%"
same,"Konzentrationen, welche das Bakterienwachstum völlig (100 %) hemmen",[22],"0,05%"
same,Mortalität von Larven der Fichtenböcke,[23]; Wirkungsdauer 1 Stunde,10%
same,Mortalität von Larven der Fichtenböcke,[23]; Wirkungsdauer 24 Stunden,88%
same,Mortalität von Larven der Fichtenböcke,[23]; Wirkungsdauer 48 Stunden,100%
same,LD50,[24],1120 ± 266 mg/kg
same,Löslichkeit in Wasser,[25],wasserunlöslich
